The nature of data set [1]: Half life in human liver microsomes. The data set is classed as ADME, Microsome.
In data set [2] the target is High affinity nerve growth factor receptor (Homo sapiens, UniProt P04629). In words: Inhibition of TrkA.
The next data set has as its target CYP2D6 (Homo sapiens, UniProt P10635). Description: Inhibition of CYP2D6 using dextromethorphan as substrate at 3 uM. It is filed as ADME. The note with it: probe dextromethorphan.
Another data set has as its target Insulin receptor (Homo sapiens, UniProt P06213). Description: Inhibition of INSR.
Data set [3] can be described thus: Permeability across human Caco2 cells. Conditions: Caco-2, read-out: permeability. It is filed as ADME, cell-based. For orientation: Passage across Caco-2 layers is used to estimate intestinal permeability.
Data set [4] has as its target Serine/threonine-protein kinase Sgk1 (Homo sapiens, UniProt O00141). In words: Inhibition of Sgk.
The target in data set [5] is T1, Tyrosine-protein kinase receptor UFO (Homo sapiens, UniProt P30530).
T1 sequence (P30530 whole entry): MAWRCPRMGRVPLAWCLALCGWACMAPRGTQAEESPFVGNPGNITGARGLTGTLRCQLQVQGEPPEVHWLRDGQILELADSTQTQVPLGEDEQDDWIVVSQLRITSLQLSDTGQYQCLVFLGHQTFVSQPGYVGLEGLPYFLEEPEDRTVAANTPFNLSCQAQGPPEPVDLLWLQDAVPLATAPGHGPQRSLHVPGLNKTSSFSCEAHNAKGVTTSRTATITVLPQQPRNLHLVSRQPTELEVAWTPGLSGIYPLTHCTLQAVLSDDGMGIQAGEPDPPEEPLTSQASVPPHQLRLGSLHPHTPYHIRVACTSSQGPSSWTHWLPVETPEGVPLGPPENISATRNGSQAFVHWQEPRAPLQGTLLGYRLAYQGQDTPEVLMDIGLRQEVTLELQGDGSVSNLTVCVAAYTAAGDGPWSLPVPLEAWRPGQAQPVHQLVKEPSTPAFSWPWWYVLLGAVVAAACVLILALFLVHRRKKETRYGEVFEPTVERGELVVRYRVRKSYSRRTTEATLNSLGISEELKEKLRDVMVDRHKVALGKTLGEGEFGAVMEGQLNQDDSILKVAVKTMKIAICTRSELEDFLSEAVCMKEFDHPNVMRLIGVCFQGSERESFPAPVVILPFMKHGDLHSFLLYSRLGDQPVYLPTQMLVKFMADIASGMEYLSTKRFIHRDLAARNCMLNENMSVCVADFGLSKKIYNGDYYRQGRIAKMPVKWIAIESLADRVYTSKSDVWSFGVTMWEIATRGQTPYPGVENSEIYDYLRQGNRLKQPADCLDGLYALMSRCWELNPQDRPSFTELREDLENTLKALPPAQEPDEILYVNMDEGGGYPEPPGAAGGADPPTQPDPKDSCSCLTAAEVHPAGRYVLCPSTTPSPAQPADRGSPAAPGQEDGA
Description: Inhibition of Axl.

Data set [6] deals with RAC-alpha serine/threonine-protein kinase (Homo sapiens, UniProt P31749). Description: Inhibition of AKT1.
A short description of data set [7]: Aqueous solubility of compound at pH 6.5. The data set is classed as physicochemical.
The target in a further data set is Aurora kinase A (Homo sapiens, UniProt O14965). In words: Inhibition of Aurora-A.
In data set [8] the target is T2, Inhibitor of nuclear factor kappa-B kinase subunit beta (Homo sapiens, UniProt O14920).
T2 sequence (O14920 whole entry): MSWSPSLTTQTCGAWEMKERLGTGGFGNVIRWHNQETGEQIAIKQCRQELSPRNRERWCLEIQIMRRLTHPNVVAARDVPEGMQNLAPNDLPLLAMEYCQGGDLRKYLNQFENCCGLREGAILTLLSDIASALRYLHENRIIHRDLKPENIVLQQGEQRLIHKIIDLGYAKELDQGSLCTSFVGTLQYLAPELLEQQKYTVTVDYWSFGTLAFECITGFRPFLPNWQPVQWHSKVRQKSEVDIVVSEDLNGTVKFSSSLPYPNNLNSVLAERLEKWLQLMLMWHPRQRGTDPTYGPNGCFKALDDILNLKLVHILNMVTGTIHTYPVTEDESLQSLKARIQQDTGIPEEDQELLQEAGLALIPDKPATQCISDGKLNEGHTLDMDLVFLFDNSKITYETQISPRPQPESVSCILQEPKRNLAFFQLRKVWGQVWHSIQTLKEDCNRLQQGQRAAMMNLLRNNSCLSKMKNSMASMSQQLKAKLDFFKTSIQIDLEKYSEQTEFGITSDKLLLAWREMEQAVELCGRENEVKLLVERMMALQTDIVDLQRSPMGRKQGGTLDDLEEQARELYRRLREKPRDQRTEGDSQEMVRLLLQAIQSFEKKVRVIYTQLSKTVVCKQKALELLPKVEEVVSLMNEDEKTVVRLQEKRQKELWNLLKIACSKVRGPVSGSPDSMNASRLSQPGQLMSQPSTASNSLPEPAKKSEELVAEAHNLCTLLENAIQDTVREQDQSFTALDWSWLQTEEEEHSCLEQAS
Description: Inhibition of IKK-beta.

For data set [9], the target named is Serine/threonine-protein kinase TAO3 (Homo sapiens, UniProt Q9H2K8). In words: Inhibition of TAOK3.
For data set [10], the target named is Vascular endothelial growth factor receptor 2 (Homo sapiens, UniProt P35968). Description: Inhibition of VEGFR2.
The target in data set [11] is T3, Protein kinase C zeta type (Homo sapiens, UniProt Q05513).
T3 sequence (Q05513 whole entry): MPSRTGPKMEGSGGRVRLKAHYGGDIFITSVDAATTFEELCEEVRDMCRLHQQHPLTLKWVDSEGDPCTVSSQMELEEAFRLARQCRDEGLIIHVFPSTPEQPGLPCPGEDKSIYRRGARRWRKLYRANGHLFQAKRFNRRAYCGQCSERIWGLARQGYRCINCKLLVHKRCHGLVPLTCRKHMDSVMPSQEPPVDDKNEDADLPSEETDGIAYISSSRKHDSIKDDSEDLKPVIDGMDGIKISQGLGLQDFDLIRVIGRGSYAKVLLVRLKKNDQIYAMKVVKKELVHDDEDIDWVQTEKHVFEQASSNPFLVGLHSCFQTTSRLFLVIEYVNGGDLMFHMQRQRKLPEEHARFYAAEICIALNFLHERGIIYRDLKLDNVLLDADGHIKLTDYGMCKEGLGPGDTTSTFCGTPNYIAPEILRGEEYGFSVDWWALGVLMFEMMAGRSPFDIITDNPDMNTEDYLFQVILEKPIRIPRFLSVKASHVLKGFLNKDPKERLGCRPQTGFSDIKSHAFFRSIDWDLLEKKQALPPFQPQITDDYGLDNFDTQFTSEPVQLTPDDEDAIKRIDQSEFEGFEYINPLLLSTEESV
Description: Inhibition of PKCzeta.

In data set [12] the target is Mitogen-activated protein kinase 1 (Homo sapiens, UniProt P28482). In words: Inhibition of Erk2.
Data set [13] addresses Hepatocyte growth factor receptor (Homo sapiens, UniProt P08581). In words: Inhibition of HGFR.
Data set [14] deals with Tyrosine-protein kinase Lck (Homo sapiens, UniProt P06239). Description: Inhibition of Lck.
Tyrosine-protein kinase Lck, sequence (P06239 whole entry): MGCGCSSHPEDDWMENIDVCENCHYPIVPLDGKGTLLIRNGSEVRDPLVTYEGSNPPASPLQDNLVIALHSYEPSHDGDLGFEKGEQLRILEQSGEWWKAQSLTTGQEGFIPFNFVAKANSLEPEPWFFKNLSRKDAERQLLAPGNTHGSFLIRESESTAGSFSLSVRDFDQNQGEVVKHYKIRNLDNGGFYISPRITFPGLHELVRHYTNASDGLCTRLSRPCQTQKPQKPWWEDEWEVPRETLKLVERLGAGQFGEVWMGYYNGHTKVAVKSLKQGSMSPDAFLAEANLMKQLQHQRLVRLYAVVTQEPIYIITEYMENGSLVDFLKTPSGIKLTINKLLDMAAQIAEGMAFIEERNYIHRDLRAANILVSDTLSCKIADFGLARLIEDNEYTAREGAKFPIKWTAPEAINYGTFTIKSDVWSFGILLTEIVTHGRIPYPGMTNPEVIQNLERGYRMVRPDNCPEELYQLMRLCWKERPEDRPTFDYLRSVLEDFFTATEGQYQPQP
The target of the next data set is Cytochrome P450 2D6 (Homo sapiens, UniProt P10635). In words: Inhibition of CYP2D6 using dextromethorphan as substrate. It is filed as ADME.
Cytochrome P450 2D6, sequence (P10635 whole entry): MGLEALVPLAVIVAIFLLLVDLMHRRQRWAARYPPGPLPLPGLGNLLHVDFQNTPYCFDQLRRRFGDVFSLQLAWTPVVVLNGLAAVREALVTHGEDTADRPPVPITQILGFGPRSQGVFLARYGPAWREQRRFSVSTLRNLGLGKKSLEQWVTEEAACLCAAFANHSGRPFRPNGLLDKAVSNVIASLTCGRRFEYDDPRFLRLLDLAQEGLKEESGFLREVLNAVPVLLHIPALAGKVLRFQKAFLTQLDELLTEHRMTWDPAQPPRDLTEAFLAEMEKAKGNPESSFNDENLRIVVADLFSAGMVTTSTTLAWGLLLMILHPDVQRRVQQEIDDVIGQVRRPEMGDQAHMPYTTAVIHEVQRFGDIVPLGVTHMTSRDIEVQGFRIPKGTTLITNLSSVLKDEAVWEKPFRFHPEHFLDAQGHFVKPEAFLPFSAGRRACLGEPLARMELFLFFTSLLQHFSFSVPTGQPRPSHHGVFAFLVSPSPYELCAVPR
The nature of data set [15]: Oral bioavailability in Sprague-Dawley rat. The data set is classed as ADME, organism-based. The note with it: in vivo.
A short description of data set [16]: Half life in po dosed Sprague-Dawley rat. The note with it: in vivo. It is filed as ADME, organism-based.
Data set [17] can be described thus: Clearance in po dosed Sprague-Dawley rat. It is filed as ADME, organism-based. Conditions: in vivo.

The structures appear in SMILES notation. ≈ marks a conversion by molar mass, not a printed value.

Hepatocyte growth factor receptor, sequence (P08581 whole entry): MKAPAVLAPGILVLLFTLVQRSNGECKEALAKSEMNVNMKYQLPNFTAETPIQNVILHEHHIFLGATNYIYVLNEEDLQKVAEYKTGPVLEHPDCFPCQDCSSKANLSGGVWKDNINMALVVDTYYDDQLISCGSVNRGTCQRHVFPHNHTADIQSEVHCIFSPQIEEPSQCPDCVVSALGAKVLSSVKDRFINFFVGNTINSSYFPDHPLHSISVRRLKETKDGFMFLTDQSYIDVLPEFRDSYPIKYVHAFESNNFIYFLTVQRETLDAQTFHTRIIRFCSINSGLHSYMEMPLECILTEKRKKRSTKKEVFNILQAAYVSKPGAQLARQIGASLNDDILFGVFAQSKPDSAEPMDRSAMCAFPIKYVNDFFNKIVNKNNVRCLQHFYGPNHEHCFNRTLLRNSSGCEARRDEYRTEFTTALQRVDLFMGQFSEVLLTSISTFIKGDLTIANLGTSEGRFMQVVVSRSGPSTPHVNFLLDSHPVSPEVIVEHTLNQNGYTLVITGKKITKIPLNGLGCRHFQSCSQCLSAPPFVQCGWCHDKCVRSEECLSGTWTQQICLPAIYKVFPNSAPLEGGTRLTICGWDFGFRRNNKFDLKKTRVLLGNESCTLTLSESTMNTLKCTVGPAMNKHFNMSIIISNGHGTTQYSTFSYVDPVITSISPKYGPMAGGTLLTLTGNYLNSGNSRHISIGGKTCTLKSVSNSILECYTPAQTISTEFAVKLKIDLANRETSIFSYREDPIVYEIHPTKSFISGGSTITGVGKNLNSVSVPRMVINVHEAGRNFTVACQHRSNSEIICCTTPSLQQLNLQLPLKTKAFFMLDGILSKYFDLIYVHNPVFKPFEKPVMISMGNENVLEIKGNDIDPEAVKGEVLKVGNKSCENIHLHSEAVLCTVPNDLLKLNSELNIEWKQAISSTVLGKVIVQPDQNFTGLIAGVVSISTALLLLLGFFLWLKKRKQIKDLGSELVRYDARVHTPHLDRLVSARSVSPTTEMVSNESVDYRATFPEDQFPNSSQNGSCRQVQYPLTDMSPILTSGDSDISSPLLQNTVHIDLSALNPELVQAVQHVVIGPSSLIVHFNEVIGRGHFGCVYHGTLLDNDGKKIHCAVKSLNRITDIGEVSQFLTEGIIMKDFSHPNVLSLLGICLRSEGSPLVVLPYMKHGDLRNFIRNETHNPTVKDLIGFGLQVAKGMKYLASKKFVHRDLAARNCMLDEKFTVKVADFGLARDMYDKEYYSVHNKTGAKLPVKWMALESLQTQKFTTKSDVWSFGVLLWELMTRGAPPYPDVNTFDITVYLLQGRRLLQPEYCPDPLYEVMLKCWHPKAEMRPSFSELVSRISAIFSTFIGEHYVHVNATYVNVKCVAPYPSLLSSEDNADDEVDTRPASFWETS
High affinity nerve growth factor receptor, sequence (P04629 whole entry): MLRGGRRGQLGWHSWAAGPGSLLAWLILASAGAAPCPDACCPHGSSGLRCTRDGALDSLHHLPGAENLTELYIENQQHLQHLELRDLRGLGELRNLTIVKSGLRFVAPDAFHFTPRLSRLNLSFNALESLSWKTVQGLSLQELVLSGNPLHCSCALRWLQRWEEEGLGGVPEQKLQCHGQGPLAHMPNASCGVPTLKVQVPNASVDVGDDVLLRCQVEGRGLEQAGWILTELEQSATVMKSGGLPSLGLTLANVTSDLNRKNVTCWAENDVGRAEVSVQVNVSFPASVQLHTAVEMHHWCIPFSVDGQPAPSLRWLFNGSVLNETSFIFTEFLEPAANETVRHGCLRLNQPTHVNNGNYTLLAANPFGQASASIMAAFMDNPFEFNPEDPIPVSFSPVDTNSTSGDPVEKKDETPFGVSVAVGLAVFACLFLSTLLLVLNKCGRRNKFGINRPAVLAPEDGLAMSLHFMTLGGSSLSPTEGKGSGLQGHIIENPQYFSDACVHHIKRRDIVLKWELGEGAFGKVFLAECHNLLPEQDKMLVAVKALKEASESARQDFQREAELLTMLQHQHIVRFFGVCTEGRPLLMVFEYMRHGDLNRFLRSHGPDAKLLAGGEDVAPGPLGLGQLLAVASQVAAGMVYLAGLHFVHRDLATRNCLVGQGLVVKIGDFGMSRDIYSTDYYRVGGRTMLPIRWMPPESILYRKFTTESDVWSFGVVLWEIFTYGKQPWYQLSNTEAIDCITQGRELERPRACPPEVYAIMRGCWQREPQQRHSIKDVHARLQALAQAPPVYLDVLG
CYP2D6, sequence (P10635 whole entry): as the sequence (P10635 whole entry) above
Insulin receptor, sequence (P06213 28-758 limits assumed): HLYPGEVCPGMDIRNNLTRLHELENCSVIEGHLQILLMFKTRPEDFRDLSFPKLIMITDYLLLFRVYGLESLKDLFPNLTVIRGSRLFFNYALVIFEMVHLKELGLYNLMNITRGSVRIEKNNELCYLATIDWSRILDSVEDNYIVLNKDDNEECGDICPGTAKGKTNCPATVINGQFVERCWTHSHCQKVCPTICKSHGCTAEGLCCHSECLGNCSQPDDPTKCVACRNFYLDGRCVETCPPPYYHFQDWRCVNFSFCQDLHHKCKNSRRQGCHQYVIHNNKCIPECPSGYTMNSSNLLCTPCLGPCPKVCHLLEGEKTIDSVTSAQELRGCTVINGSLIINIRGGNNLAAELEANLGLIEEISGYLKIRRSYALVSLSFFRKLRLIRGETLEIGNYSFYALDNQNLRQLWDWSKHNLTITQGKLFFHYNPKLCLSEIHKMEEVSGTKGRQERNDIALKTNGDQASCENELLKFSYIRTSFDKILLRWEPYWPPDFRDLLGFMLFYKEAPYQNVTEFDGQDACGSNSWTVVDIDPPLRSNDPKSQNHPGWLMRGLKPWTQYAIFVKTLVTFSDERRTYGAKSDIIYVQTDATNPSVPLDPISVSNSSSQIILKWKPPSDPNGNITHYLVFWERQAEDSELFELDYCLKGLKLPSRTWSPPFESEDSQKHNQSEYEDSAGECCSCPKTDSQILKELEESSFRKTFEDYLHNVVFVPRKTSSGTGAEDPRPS
Insulin receptor, sequence (P06213 763-1382 limits assumed): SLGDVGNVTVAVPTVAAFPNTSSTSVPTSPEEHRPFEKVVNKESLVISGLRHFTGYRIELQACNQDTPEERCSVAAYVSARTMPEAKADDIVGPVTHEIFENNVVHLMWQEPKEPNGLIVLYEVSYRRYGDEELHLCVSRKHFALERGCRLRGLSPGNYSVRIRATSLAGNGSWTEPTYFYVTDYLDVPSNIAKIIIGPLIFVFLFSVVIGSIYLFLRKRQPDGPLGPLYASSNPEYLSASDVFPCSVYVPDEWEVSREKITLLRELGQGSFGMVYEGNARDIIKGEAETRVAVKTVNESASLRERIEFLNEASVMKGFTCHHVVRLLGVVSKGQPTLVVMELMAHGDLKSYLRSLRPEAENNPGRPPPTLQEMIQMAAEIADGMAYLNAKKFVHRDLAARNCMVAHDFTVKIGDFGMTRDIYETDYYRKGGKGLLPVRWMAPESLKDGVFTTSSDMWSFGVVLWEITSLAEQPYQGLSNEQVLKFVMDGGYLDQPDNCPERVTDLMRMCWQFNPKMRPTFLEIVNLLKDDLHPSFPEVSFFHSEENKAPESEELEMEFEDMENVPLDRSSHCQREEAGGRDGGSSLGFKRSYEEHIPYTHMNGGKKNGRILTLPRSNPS
Serine/threonine-protein kinase Sgk1, sequence (O00141 whole entry): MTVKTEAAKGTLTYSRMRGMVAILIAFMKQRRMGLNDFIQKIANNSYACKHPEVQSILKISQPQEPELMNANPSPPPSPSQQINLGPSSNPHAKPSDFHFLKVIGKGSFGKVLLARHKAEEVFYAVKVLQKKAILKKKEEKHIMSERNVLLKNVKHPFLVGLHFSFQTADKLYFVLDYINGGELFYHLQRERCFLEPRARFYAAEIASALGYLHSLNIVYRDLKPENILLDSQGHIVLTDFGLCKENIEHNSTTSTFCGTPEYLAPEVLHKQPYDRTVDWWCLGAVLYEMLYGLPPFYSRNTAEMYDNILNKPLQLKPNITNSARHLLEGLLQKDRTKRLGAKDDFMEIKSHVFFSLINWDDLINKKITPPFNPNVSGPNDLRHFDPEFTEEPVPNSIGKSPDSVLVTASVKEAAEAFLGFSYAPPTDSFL

On to `C[C@@H]1CCC(N2CC[C@]3(CN(C(=O)c4cc5ccc(F)cc5[nH]4)c4ccccc43)C2)CN1` (stereo not given in full), for which the half-life (as a rule, the time in which the quantity being followed falls by half) in data set [1] came to 44 min. The IC50 (usually the concentration that gives 50% inhibition) in [2] was greater than 30 µM; at Insulin receptor, greater than 30 µM; in data set [4], greater than 30 µM; in data set [5] it was 23.8 µM; in data set [6], greater than 30 µM; against Aurora kinase A it was greater than 30 µM. Besides, the IC50 was greater than 30 µM in data set [8]; greater than 30 µM in data set [9]; 21.9 µM in data set [10]; greater than 30 µM in data set [11]; greater than 30 µM in data set [12]. In addition, at CYP2D6, at 3 µM the inhibition was 94%. Moreover, in data set [3], the Papp was found to be 5.13 ×10⁻⁶ cm/s. For the same compound, the concentration in solution in data set [7] (solubility) came to 11.7 µM (≈ 5.06 µg/mL).
With `C[C@@H]1CCC(N2CC[C@]3(CN(C(=O)c4cc5ccccc5[nH]4)c4ccccc43)C2)CN1` (stereo not given in full), the IC50 is 18.4 µM in [5]; greater than 30 µM in data set [13]; greater than 30 µM in [8]; greater than 30 µM in data set [14]; greater than 30 µM in data set [11].
For the compound `O=C(c1cc2cc(F)ccc2[nH]1)N1C[C@]2(CCN(C3CCCNC3)C2)c2ccccc21` (stereo not given in full), the IC50 in data set [5] is 19.4 µM; in data set [13], greater than 30 µM; in data set [8], greater than 30 µM; in data set [14] it was greater than 30 µM; in data set [11], greater than 30 µM.
In the case of `O=C(c1cc2ccc(F)cc2[nH]1)N1C[C@]2(CCN(C3CCNC3)C2)c2ccccc21` (stereo not given in full), the half-life in data set [1] was 52 min; in [16], 240 min. Further, the IC50 in data set [5] was 5.25 µM; at Cytochrome P450 2D6, 0.655 µM; in data set [8], greater than 30 µM; in data set [14], greater than 30 µM; in data set [11], greater than 30 µM. Further, in data set [7], the solubility – broadly, the concentration that dissolves in the medium under given conditions – came out at 7.8 µM (≈ 3.16 µg/mL). For the same compound, the bioavailability (usually dose-corrected exposure relative to a reference, in per cent) in [15] stood at 11%. Further, in [17], the CL/F (usually clearance divided by bioavailability, as obtained after extravascular dosing) stood at 5 mL/min/kg.

These data come from ChEMBL document CHEMBL1933021, “Novel and selective spiroindoline-based inhibitors of Sky kinase” (Bioorg Med Chem Lett, 2012).
